Reference: ChEMBL document CHEMBL1141043, “Novel, selective indole-based ECE inhibitors: lead optimization via solid-phase and classical synthesis” (Bioorg Med Chem Lett, 2005)

Tests used:
[1] = biological target: T1, Endothelin-converting enzyme 1 (Homo sapiens, UniProt P42892); assay: Inhibitory concentration against endothelin converting enzyme 1 using bradykinin-derived substrate
T1 sequence (P42892 whole entry): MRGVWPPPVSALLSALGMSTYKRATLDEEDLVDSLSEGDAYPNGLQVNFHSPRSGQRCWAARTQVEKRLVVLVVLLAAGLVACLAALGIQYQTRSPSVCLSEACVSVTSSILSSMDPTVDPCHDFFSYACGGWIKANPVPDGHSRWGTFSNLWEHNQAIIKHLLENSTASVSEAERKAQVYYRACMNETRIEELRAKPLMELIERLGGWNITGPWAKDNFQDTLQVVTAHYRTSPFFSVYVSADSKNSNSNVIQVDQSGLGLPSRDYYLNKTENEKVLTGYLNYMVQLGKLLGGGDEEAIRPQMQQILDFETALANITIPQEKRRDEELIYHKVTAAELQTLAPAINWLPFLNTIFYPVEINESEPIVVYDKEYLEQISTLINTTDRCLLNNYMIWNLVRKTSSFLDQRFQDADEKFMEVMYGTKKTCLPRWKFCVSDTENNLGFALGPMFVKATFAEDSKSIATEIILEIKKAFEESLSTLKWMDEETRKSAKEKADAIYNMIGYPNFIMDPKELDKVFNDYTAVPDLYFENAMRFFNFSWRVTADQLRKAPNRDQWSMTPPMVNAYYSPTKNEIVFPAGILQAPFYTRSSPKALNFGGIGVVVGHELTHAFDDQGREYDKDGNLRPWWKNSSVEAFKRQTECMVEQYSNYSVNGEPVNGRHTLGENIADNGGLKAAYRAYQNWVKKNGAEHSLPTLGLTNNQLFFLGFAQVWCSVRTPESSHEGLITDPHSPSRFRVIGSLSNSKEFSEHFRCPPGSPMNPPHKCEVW

[2] = biological target: T1, Endothelin-converting enzyme 1; assay: Inhibitory concentration against endothelin converting enzyme 1 using big-ET-1 substrate in ELISA

Structure (SMILES) | IC50 [1] [nM] | IC50 [2] [nM]
CC(C)(C)CC(=O)Nc1ccc2c(c1)cc(CNc1ccccc1)n2Cc1ccccc1F | > 10000 | –
CC(C)(C)CC(=O)Nc1ccc2c(c1)cc(-c1nc(-c3ccccc3)no1)n2Cc1ccccc1F | > 10000 | –
CC(C)(C)CC(=O)Nc1ccc2c(c1)cc(C(=O)Nc1ccn[nH]1)n2Cc1ccccc1F | > 10000 | –
CNS(=O)(=O)c1ccc(NC(=O)c2cccc(NC(=O)c3cc4cc(NC(=O)CC(C)(C)C)ccc4n3Cc3ccccc3F)c2)cc1 | – | 150
CC(C)(C)CC(=O)Nc1ccc2c(c1)c(C(=O)Nc1ccccc1)cn2Cc1ccccc1F | > 10000 | –
CC(C)(C)CC(=O)Nc1ccc2c(c1)cc(C(=O)Nc1cccc(C(=O)Nc3ccc(S(C)(=O)=O)cc3)c1)n2Cc1ccccc1F | – | 120
C[S+]([O-])c1ccc(NC(=O)c2cccc(NC(=O)c3cc4cc(NC(=O)CC(C)(C)C)ccc4n3Cc3ccccc3F)c2)cc1 (stereo not drawn) | – | 66
CC(C)(C)CC(=O)Nc1ccc2c(c1)cc(C(=O)Nc1cccc(C(=O)Nc3ccc(S(N)(=O)=O)cc3)c1)n2Cc1ccccc1F | – | 39
